Columns and labels:
KRasG12D = KRasG12D (Homo sapiens, UniProt P01116, G12D); assay: KRAS inhibitory activity test, TR-FRET (inhibition of binding of KRasG12D to GTP, SOS/GTP nucleotide exchange); format: biochemical; settings: read-out: IC50 values of the compounds for inhibiting KRAS enzymes, G12D
Method in brief: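 KRasG12D preloaded with Bodipy-GDP plus Tb-streptavidin (3 nM Kras/0.5 nM Tb-SA/30 nM Bodipy-GDP) incubated 1 h at rt with compound (10-point 3-fold series). SOS/GTP mixture then added for 1 h at rt. TR-FRET signal read; IC50 calculated.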

[1] = test system: p-ERK in PSN-1 (G12R) cells; assay: Cellular p-ERK inhibition assay (HTRF); format: cell-based; settings: Homo sapiens, PSN1, 1 hour with compound, read-out: IC50 (nM) of the compounds on the inhibition of p-ERK in tumor cells, PSN-1
Protocol: (§1) Cells were seeded in clear 96-well cell culture plates, with 80 µL of cell suspension per well, containing 8000 cells per well. The plates were incubated overnight at 37°C using a CO2 incubator. 2 µL of the compound was added to 78 µL of cell culture medium, mixed well, and then 20 µL of the compound solution was added to the corresponding wells of the cell culture plate. The plates were returned to the CO2 incubator for another hour. After incubation, the cell supernatant was discarded, and 50 µL of the […] was added to the cell culture plate. Add 1X cell lysis buffer to each well and incubate at room temperature with shaking for 30 minutes. Dilute Phospho-ERK1/2 Eu Cryptate antibody and Phospho-ERK1/2 d2 antibody 20-fold using detection buffer. Transfer 16 µL of cell lysis supernatant to each well in a new 384 white microplate, then add 2 µL of Phospho-ERK1/2 Eu Cryptate antibody diluent and 2 µL of Phospho-ERK1/2 d2 antibody diluent. Incubate at room temperature for at least 4 hours. After incubation, read the HTRF excitation (320 nm) and emission (615 nm, 665 nm) using a multilabel analyzer. Calculate the IC50 of the analyte. "++++" indicates IC50≤ 10 nM; "+++" indicates 10 nM < IC50≤ 100 nM; "++" indicates 100 nM < IC50≤ 2000 nM; "+" indicates 2000 nM < IC50. Table 2. IC50 (nM) of the compounds on the inhibition of p-ERK in tumor cells.

[2] = test system: p-ERK in AsPC-1 (G12D) cells; assay: Cellular p-ERK inhibition assay (HTRF); format: cell-based; settings: Homo sapiens, ASPC1, 1 hour with compound, read-out: IC50 (nM) of the compounds on the inhibition of p-ERK in tumor cells, AsPC-1
Protocol: as §1

[3] = test system: p-ERK in HCT116 (G13D) cells; assay: Cellular p-ERK inhibition assay (HTRF); format: cell-based; settings: Homo sapiens, HCT-116, 1 hour with compound, read-out: IC50 (nM) of the compounds on the inhibition of p-ERK in tumor cells, HCT11 6
Protocol: as §1

Sequence of KRasG12D (P01116 1-188 isoform P01116-2 G12D): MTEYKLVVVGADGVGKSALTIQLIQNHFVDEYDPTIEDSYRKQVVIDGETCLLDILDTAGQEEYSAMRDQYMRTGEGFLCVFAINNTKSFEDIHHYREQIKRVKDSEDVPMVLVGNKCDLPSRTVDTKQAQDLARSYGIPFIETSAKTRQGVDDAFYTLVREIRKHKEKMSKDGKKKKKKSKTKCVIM

For `Cc1cc(N)nc(C2Cc3nc(OC[C@@]45CCCN4C[C@H](F)C5)nc(N4C[C@H]5CC[C@@H](C4)N5)c3CS2(=O)=O)c1C(F)(F)F` (stereo partly drawn) [Compound 3, 7-(6-amino-4-methyl-3-(trifluoromethyl)pyridin-2-yl)-4-((1R,5S)-3,8-diazabicyclo[3. 2.1]octane-3-yl)-2-(((2R,7AS)-2-fluorotetrahydro-1H-pyrrolazin-7a(5H)-yl)methoxy) -7,8-dihydro-5H-thiopyrano[4,3-d]pyrimidine-6,6-dioxide], the IC50 (KRasG12D) was ≤ 10 nM, the IC50 [1] was 100 to 2000 nM and the IC50 [2] was ≤ 10 nM. The IC50 [3] was ≤ 10 nM.

For `Cc1cc(O)nc(C2Cc3nc(OC[C@@]45CCCN4C[C@H](F)C5)nc(N4C[C@H]5CC[C@@H](C4)N5)c3CS2(=O)=O)c1C(F)(F)F` (stereo partly drawn) [Compound 4, 4-((1R,5S)-3,8-diazabicyclo[3.2.1]octane-3-yl)-2-(((2R,7AS)-2-fluorotetrahydro-1H-pyrrolazin-7a(5H)-yl)methoxy)-7-(6-hydroxy-4-methyl-3-(trifluoromethyl)pyridin-2-yl)-7,8-dihydro-5H-thiopyrano[4,3-d]pyrimidine-6,6-dioxide], the IC50 (KRasG12D) was ≤ 10 nM, the IC50 [1] was 100 to 2000 nM and the IC50 [2] was ≤ 10 nM. The IC50 [3] was ≤ 10 nM.

In the case of `Cc1cc(O)nc(C2Cc3nc(OC[C@@]45CCCN4C[C@H](F)C5)nc(N4CCC[C@@](C)(O)C4)c3CS2(=O)=O)c1C(F)(F)F` (stereo partly drawn) [Compound 8, 2-(((2R,7AS)-2-fluorotetrahydro-1H-pyrrolazin-7a(5H)-yl)methoxy)-4-((R)-3-hydroxy-3-methylpiperidin-1-yl)-7-(6-hydroxy-4-methyl-3-(trifluoromethyl)pyridin-2-yl)-7,8-dihydro-5H-thiopyrano[4,3-d]pyrimidine-6,6-dioxide], the IC50 (KRasG12D) is reported as ≤ 10 nM, the IC50 [1] is reported as 100 to 2000 nM and the IC50 [2] is reported as ≤ 10 nM. For the same compound, the IC50 [3] was ≤ 10 nM.

With `Cc1cc(N)c(F)c([C@@H]2Cc3nc(OC[C@@]45CCCN4CC(=C(F)F)C5)nc(N4CC5CCC(C4)N5)c3CS2(=O)=O)c1C(F)(F)F` [Compound 10A, (7S)-7-(3-amino-2-fluoro-5-methyl-6-(trifluoromethyl)phenyl)-4-(3,8-diazabicyclo[3. 2.1]octane-3-yl)-2-(((S)-2-(difluoromethylene)tetrahydro-1H-pyrrolazin-7a(5H)-yl)methoxy)-7,8-dihydro-5H-thiopyrano[4,3-d]pyrimidine-6,6-dioxide] the IC50 (KRasG12D) was ≤ 10 nM.

For `Cc1cc(O)nc([C@H]2Cc3nc(OC[C@@]45CCCN4C[C@H](F)C5)nc(N4C[C@H]5CC[C@@H](C4)N5)c3CS2(=O)=O)c1C(F)(F)F` [Compound 4B, (7R)-4-((1R,5S)-3,8-diazabicyclo[3.2.1]octane-3-yl)-2-(((2R,7AS)-2-fluorotetrahydro-1H-pyrrolazin-7a(5H)-yl)methoxy)-7-(6-hydroxy-4-methyl-3-(trifluoromethyl)pyridin-2-yl)-7,8-dihydro-5H-thiopyrano[4,3-d]pyrimidine-6,6-dioxide], the IC50 (KRasG12D) was 10 to 100 nM.

With `Cc1cc(N)nc(C2Cc3nc(OC[C@@]45CCCN4CC(=CF)C5)nc(N4CC5CCC(C4)N5)c3CS2(=O)=O)c1C(F)(F)F` (stereo partly drawn) [Compound 19, 7-(6-amino-4-methyl-3-(trifluoromethyl)pyridin-2-yl)-2-(((S)-2-(fluoromethylene)tetrahydro-1H-pyrrolazin-7a(5H)-yl)methoxy)-4-(3,8-diazabicyclo[3.2.1]octane-3-yl)-7,8-dihydro-5H-thiopyrano[4,3-d]pyrimidine-6,6-dioxide] the IC50 (KRasG12D) was ≤ 10 nM.

For `CC#Cc1cc(N)c(F)c([C@@H]2Cc3nc(OC[C@@]45CCCN4C/C(=C\F)C5)nc(N4CC5CCC(C4)N5)c3CS2(=O)=O)c1C(F)(F)F` [Compound 24A, (7S)-7-(3-amino-2-fluoro-5-(prop-1-yn-1-yl)-6-(trifluoromethyl)phenyl)-4-(3,8-diazabicyclo[3.2.1]octane-3-yl)-2-(((S)-2-(fluoromethylene)tetrahydro-1H-pyrrolazin-7a(5 H)-yl)methoxy)-7,8-dihydro-5H-thiopyrano[4,3-d]pyrimidine-6,6-dioxide], the IC50 (KRasG12D) was ≤ 10 nM.

In the case of `Cc1cc(N)c(F)c([C@@H]2Cc3nc(OC[C@@]45CCCN4C[C@H](F)C5)nc(N4C[C@H]5CC[C@@H](C4)N5)c3CS2(=O)=O)c1C(F)(F)F` [Compound 38A, (7S)-7-(3-amino-2-fluoro-5-methyl-6-(trifluoromethyl)phenyl)-4-((1R,5S)-3,8-diazabicyclo[3.2.1]octane-3-yl)-2-(((2R,7AS)-2-fluorotetrahydro-1H-pyrrolazin-7a(5H)-yl)methoxy)-7,8-dihydro-5H-thiopyrano[4,3-d]pyrimidine 6,6-Dioxide], the IC50 (KRasG12D) is reported as ≤ 10 nM.

`Cc1cc(N)cc([C@@H]2Cc3nc(OC[C@@]45CCCN4C[C@H](F)C5)nc(N4CC5CCC(C4)N5)c3CS2(=O)=O)c1C(F)(F)F` [Compound 37A] was tested, and the IC50 (KRasG12D) was ≤ 10 nM.

In the case of `CC#Cc1cc(N)cc([C@@H]2Cc3nc(OC[C@@]45CCCN4CC(=C(F)F)C5)nc(N4CC5CCC(C4)N5)c3CS2(=O)=O)c1C(F)(F)F` [Compound 31A], the IC50 (KRasG12D) is reported as ≤ 10 nM.

`Cc1cc(O)nc([C@@H]2Cc3nc(OC[C@@]45CCCN4C[C@H](F)C5)nc(N4C[C@H]5CC[C@@H](C4)N5)c3CS2(=O)=O)c1C(F)(F)F` [Compound 4A, (7S)-4-((1R,5S)-3,8-diazabicyclo[3.2.1]octane-3-yl)-2-(((2R,7AS)-2-fluorotetrahydro-1H-pyrrolazin-7a(5H)-yl)methoxy)-7-(6-hydroxy-4-methyl-3-(trifluoromethyl)pyridin-2-yl)-7,8-dihydro-5H-thiopyrano[4,3-d]pyrimidine-6,6-dioxide] was tested, and the IC50 (KRasG12D) was ≤ 10 nM.

Work on `Cc1cc(N)c(F)c([C@@H]2Cc3nc(OC[C@@]45CCCN4C[C@H](F)C5)nc(N4CCC[C@@](C)(O)C4)c3CS2(=O)=O)c1C(F)(F)F` [Compound 5A, (7S)-7-(3-amino-2-fluoro-5-methyl-6-(trifluoromethyl)phenyl)-2-(((2R,7AS)-2-fluorotetrahydro-1H-pyrrolazin-7a(5H)-yl)methoxy)-4-((R)-3-hydroxy-3-methylpiperidin-1-yl)-7,8-dihydro-5H-thiopyrano[4,3-d]pyrimidine-6,6-dioxide] yielded an IC50 (KRasG12D) of 10 to 100 nM.

In the case of `Cc1cc(N)nc([C@@H]2Cc3nc(OC[C@@]45CCCN4CC(=CF)C5)nc(N4CC5CCC(C4)N5)c3CS2(=O)=O)c1C(F)(F)F` [Compound 19A, (7S)-7-(6-amino-4-methyl-3-(trifluoromethyl)pyridin-2-yl)-2-(((S)-2-(fluoromethylene)tetrahydro-1H-pyrrolazin-7a(5H)-yl)methoxy)-4-(3,8-diazabicyclo[3.2.1]octane-3-y 1)-7,8-dihydro-5H-thiopyrano[4,3-d]pyrimidine-6,6-dioxide], the IC50 (KRasG12D) is reported as ≤ 10 nM.

`Cc1cc(N)c(F)c([C@@H]2Cc3nc(OC[C@@]45CCCN4C[C@H](F)C5)nc(N4C[C@H]5CC[C@@H](C4)N5)c3CS2(=O)=O)c1C(F)(F)F` [Compound 36A, (7S)-7-(3-amino-2-fluoro-5-methyl-6-(trifluoromethyl)phenyl)-4-((1R,5S)-3,8-diazabicyclo[3.2.1]octane-3-yl)-2-(((2R,7AS)-2-fluorotetrahydro-1H-pyrrolazin-7a(5H)-yl)methoxy)-7,8-dihydro-5H-thiopyrano[4,3-d]pyrimidine 6,6-Dioxide] was tested, and the IC50 (KRasG12D) was ≤ 10 nM.
